This is an account of results in US9546157B2, “Asymmetric piperidinyl-substituted ureas as medicines” (Helsinn Healthcare SA, priority 2014, dated 2017).

Data set [1] addresses T1, GHSR1a (Homo sapiens, UniProt Q92847).
T1 construct: expressed in transfected cells; host or cells: HEK293
The data set is described as follows: Calcium FLIPR assay, GHSR-1a agonism. To be noted: HEK293/GHSR1a cells. Type of data set: cell-based. In a few lines:
(§1)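 Cells stably carrying human GHSR1a were plated a day ahead, dye-loaded, then given test compound. Agonist activity was the calcium rise over 2 minutes after compound addition at t=20 sec; antagonist activity was the reduction of the response to 10 nM ghrelin added together with compound.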

Data set [2] concerns the target T1, GHSR1a. The data set is described as follows: Calcium FLIPR assay, GHSR-1a antagonism (reduction of ghrelin response). Type of data set: cell-based. To be noted: HEK293/GHSR1a cells, ghrelin 10 nM. In a few lines:
as §1

Data set [3] is described as follows: Metabolic Stability (M = Mouse). Type of data set: in vitro ADME.
The nature of data set [4]: Metabolic Stability (H = Human). Type of data set: in vitro ADME.

T1 sequence (Q92847 whole entry): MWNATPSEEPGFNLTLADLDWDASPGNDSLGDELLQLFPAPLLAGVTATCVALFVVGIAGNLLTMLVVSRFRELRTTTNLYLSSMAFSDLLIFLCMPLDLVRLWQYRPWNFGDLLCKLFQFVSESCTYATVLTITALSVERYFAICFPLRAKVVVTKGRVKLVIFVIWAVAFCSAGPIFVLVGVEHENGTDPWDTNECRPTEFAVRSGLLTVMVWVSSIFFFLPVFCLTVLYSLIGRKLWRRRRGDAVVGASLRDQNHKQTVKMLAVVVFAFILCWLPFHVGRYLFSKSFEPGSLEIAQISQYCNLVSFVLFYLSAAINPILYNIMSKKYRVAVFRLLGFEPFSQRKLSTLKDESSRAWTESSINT

Take `CCC(NC(=O)N(C)[C@@H]1CCN(C)CC1(C)C)c1ccc(-c2cnccn2)c(Cl)c1Cl` (stereo partly drawn) [Compound H0858, 3-(1-(2,3-dichloro-4-(pyrazin-2-yl)phenyl)propyl)-1-methyl-1-((R)-1,3,3-trimethylpiperidin-4-yl)urea]: the EC50 in data set [1] was greater than 30000 nM. Further, the IC50 in data set [2] worked out at 8 nM. For the same compound, the “Metabolic Stability M” value in data set [3] was “Medium H Medium M”. The “Metabolic Stability H” value in data set [4] was “Medium H Medium M”.

For `CCC(NC(=O)N(C)C1CCN(C)CC1)c1ccc(-c2cncc(F)n2)c(Cl)c1Cl` (centres unmarked) [Compound H0863, 3-(1-(2,3-dichloro-4-(6-fluoropyrazin-2-yl)phenyl)propyl)-1-methyl-1-(1-methylpiperidin-4-yl)urea], in data set [1], the concentration giving a half-maximal response (EC50) is greater than 30000 nM. The half-maximal inhibitory concentration (IC50) in data set [2] was 3 nM. Also, the “Metabolic Stability M” value in data set [3] was “High”. Also, the “Metabolic Stability H” value in data set [4] is reported as “Medium”.

In the case of `C[C@H](NC(=O)N(C)C1CCN(C)C1)c1ccc(-c2cncc(F)n2)c(Cl)c1Cl` (stereo partly drawn) [Compound H0872, 3-((S)-1-(2,3-dichloro-4-(6-fluoropyrazin-2-yl)phenyl)ethyl)-1-methyl-1-(1-methylpyrrolidin-3-yl)urea], the concentration giving a half-maximal response (EC50) in data set [1] was greater than 30000 nM. Further, the half-inhibitory concentration (IC50) in data set [2] worked out at 6 nM. In data set [3], the “Metabolic Stability M” value was “medium”. In addition, the “Metabolic Stability H” value in data set [4] is recorded as “High”.

Regarding `CCN(C(=O)N[C@@H](C)c1ccc(-c2cnccn2)c(Cl)c1Cl)C1CCN(C)CC1` [Compound H0889, (S)-3-(1-(2,3-dichloro-4-(pyrazin-2-yl)phenyl)ethyl)-1-ethyl-1-(1-methylpiperidin-4-yl)urea], the half-maximal effective concentration (EC50) in data set [1] was greater than 30000 nM. Moreover, the half-inhibitory concentration (IC50) in data set [2] stood at 6 nM. Moreover, the “Metabolic Stability M” value in data set [3] is “High H High M”. The “Metabolic Stability H” value in data set [4] was “High H High M”.

In the case of `C[C@H](NC(=O)N(C)[C@@H]1CCN(C)CC1(C)C)c1ccc(-c2cnccn2)c(Cl)c1Cl` [Compound H0890, 3-((S)-1-(2,3-dichloro-4-(pyrazin-2-yl)phenyl)ethyl)-1-methyl-1-((R)-1,3,3-trimethylpiperidin-4-yl)urea], in data set [1], the concentration giving a half-maximal response (EC50) is greater than 30000 nM. Further, in data set [2], the IC50 came out at 1.6 nM. Moreover, the “Metabolic Stability M” value in data set [3] is given as “High H High M”. Besides, in data set [4], the “Metabolic Stability H” value was “High H High M”.

On to `CN1CCC(N(C)C(=O)N[C@@H](c2ccc(-c3cnccn3)c(Cl)c2Cl)C(F)(F)F)CC1` [Compound H0899, (S)-3-(1-(2,3-dichloro-4-(pyrazin-2-yl)phenyl)-2,2,2-trifluoroethyl)-1-methyl-1-(1-methylpiperidin-4-yl)urea], for which the EC50 in data set [1] was greater than 30000 nM. Moreover, the IC50 in data set [2] was found to be 1600 nM. In addition, the “Metabolic Stability M” value in data set [3] was “High”. Moreover, the “Metabolic Stability H” value in data set [4] is “Medium”.

For the compound `CN1CCC(N(C)C(=O)NC(c2ccc(-c3cncc(F)n3)c(Cl)c2Cl)C(F)(F)F)CC1` (centres unmarked) [Compound H0908, 3-(1-(2,3-dichloro-4-(6-fluoropyrazin-2-yl)phenyl)-2,2,2-trifluoroethyl)-1-methyl-1-(1-methylpiperidin-4-yl)urea], in data set [1], the concentration for a half-maximal effect (EC50) was greater than 30000 nM. The concentration for half-maximal inhibition (IC50) in data set [2] worked out at 8 nM. Besides, the “Metabolic Stability M” value in data set [3] is reported as “High”. The “Metabolic Stability H” value in data set [4] was “Medium”.

As to `CCN(C(=O)NC(c1ccc(-c2cnccn2)c(Cl)c1Cl)C(F)(F)F)C1CCN(C)CC1` (centres unmarked) [Compound H0909, 3-(1-(2,3-dichloro-4-(pyrazin-2-yl)phenyl)-2,2,2-trifluoroethyl)-1-ethyl-1-(1-methylpiperidin-4-yl)urea], in data set [1], the EC50 was greater than 30000 nM. The IC50 in data set [2] worked out at 12 nM. Moreover, the “Metabolic Stability M” value in data set [3] is “High”. The “Metabolic Stability H” value in data set [4] is “Medium”.

As usually defined, the EC50 is the concentration needed to bring the measured effect to its halfway point. One may read the IC50 as the point on the concentration scale where inhibition reaches its midpoint.
